Source: patent US12544356B2, “Combination of a chromene compound and a second active agent” (EUCLISES PHARMACEUTICALS, INC., priority 2016, dated 2026)

How the values were obtained:
[1] = system: HT-29 xenograft murine colon carcinoma model; test: HT-29 xenograft tumor growth, Compound A01 with erlotinib (Example 1); format: in vivo, CB17SCID male mice
Description: HT-29 cells were cultured in medium for one week. Following digestion cells were centrifuged for 3-5 minutes at 800-1500 rpm. Cells were washed with PBS and centrifuged again under the same condition. Cells were then suspended in PBS to a final concentration of […]. 200 μL of the HT-29 cell suspension were subcutaneously injected into the mice left forelimb axillary (2.5×10^6 HT-29 cells per mouse).
(§1) 48 CB17SCID male mice were implanted with 2.5×10^6 HT29 cells. Growth of the tumor was calculated for each animal using a caliper and the equation: V=π×ab^2/6.
(§2) Mouse weight and tumor volume measurements were taken on days 0, 3, 6, 9, 12, 15, 18, 21, and 22 following randomization.

[2] = system: immune cell infiltration into the tumors (CT26); test: Immune response to CT26 tumors: tumor-infiltrating and splenic immune cells (Example 3); format: in vivo, Female BALB/c mice; settings: Day 16; compared to vehicle treated mice
Description: Female BALB/c mice were inoculated with 10^5 CT26 colorectal cancer cells as in Example 2. […] Anti-PD1 antibody was administered i.p. (200 μg/mouse) at days 9 and 14 post inoculation. Tumors were analyzed at day 16 (7 days after first anti-PD1 administration).

[3] = system: intratumoral immune cells (CT26 tumors); test: Intratumoral immune response by flow cytometry (Example 4); format: in vivo, Female Envigo BALB/c (BALB/cAnNHsd) mice
Description: CT26 murine colon carcinoma cells were prepared as in Example 2. Female Envigo BALB/c (BALB/cAnNHsd) were inoculated with 5×10^5 CT26 cells suspended in PBS (200 μL) subcutaneously high in the axilla (just under the fore limb). […] The antibodies were administered via i.p. injection on days 3, 6, 9, 12, and 16 following inoculation. Compound A01 was given per oral daily. The mice were euthanized two hours following final dose on Day 16 and samples were prepared for testing.
Following euthanization, tumors were removed and processed to recover live cells. Red blood cells were removed. The cells were stained for surface markers and, where applicable, permeabilized for intracellular staining. The cells were washed and suspended in flow cytometry staining buffer and analyzed via flow cytometry.
The treatment had minimal effect on the relative number of Tregs (CD25^+Foxp3^+) and MDSCs (CD11b^+Ly6G^+) (as a percentage of total CD45^+ cells). […] FIG. 3 correlates CD8^+ cell percentages to tumor regression.

[4] = system: CT26 xenograft murine colon carcinoma model; test: CT26 tumor rejection, COX-2 inhibitor with anti-PD1 antibody (Example 2); format: in vivo, female BALB/c mice; settings: up to 50 days following inoculation, COX-2 inhibitor oral daily from day 0, anti-PD-1 200 μg/mouse i.p.
Description: CT26.WT cells were cultured under standard conditions. They were harvested with trypsin and washed with PBS. 10^5 cells were injected into the right flank of 6 week old female BALB/c mice in total volume of 100 μL. Tumor size was quantified as the mean of the longest diameter and its perpendicular.

[5] = system: PGE-2; test: Tumoral PGE-2 in HT-29 tumors (Example 5); format: in vivo, CB17SCID mice; settings: HT-29 tumor, day 24
Description: (§3) HT-29 cells were prepared and implanted by standard methods using the same procedure as Example 1.
(§4) 42 CB17SCID mice were implanted with 2.5×10^6 HT-29 cells.
(§5) Mouse weight and tumor volume measurements were taken on days 0, 3, 6, 9, 12, 15, 18, 21, and 22 following randomization. After 22 days dosing, the blood from each animal was collected at 2 hours and 6 hours post dose.

[6] = system: HT-29 xenograft colon carcinoma model; test: HT-29 xenograft tumor volume, Compound A01 vs celecoxib (Example 5); format: in vivo, CB17SCID mice
Description: as §3, §4, §5

[7] = Body weight in HT-29 xenograft study (Example 1); format: in vivo, CB17SCID male mice
Description: as §1, §2

[8] = of total CD8+CD4− T cells, Day 16, doses 10 mg/kg
[9] = percentage of total CD45+ cells, Day 16, doses 10 mg/kg

[2H]C([2H])([2H])c1cc(Br)cc2c1O[C@H](C(F)(F)F)C(C(=O)O)=C2 [Compound A01, (S)-6-bromo-8-trideuteromethyl-2-(trifluoromethyl)-2H-chromene-3-carboxylic acid]
suppression of tumor growth compared to vehicle ([1]; 10 mg/kg Compound A01 alone): 51%
Tumor Volume ([1]; Day 0, A01 1 mg/kg oral daily): 71.8 mm^3
Tumor Volume ([1]; Day 0, A01 10 mg/kg oral daily): 70.1 mm^3
Tumor Volume ([1]; Day 3, A01 1 mg/kg oral daily): 143.8 mm^3
Tumor Volume ([1]; Day 3, A01 10 mg/kg oral daily): 145.2 mm^3
Tumor Volume ([1]; Day 6, A01 1 mg/kg oral daily): 194.2 mm^3
Tumor Volume ([1]; Day 6, A01 10 mg/kg oral daily): 186.9 mm^3
Tumor Volume ([1]; Day 9, A01 1 mg/kg oral daily): 301.1 mm^3
Tumor Volume ([1]; Day 9, A01 10 mg/kg oral daily): 235.1 mm^3
Tumor Volume ([1]; Day 12, A01 1 mg/kg oral daily): 344.8 mm^3
Tumor Volume ([1]; Day 12, A01 10 mg/kg oral daily): 292.1 mm^3
Tumor Volume ([1]; Day 15, A01 1 mg/kg oral daily): 459.4 mm^3
Tumor Volume ([1]; Day 15, A01 10 mg/kg oral daily): 309.7 mm^3
Tumor Volume ([1]; Day 18, A01 1 mg/kg oral daily): 820.6 mm^3
Tumor Volume ([1]; Day 18, A01 10 mg/kg oral daily): 497.5 mm^3
Tumor Volume ([1]; Day 21, A01 1 mg/kg oral daily): 899.0 mm^3
Tumor Volume ([1]; Day 21, A01 10 mg/kg oral daily): 592.1 mm^3
Tumor Volume ([1]; Day 22, A01 1 mg/kg oral daily): 921.1 mm^3
Tumor Volume ([1]; Day 22, A01 10 mg/kg oral daily): 612.1 mm^3
slowing of tumor growth, comparison of therapies ([1]; HT-29 xenograft, compared to vehicle and to each therapy alone): superior to 50 mg/kg erlotinib
CD45+ (leukocyte), CD3+, CD8+, CD8+IFNγ+, CD4+IFNγ+, CD8+TNFα+ and CD4+TNFα+ cell infiltration into the tumors [2]: increase
Ki67+ CD8+ T cells [3, 8]: 13.75%
PD-1+ CD8+ T cells [3, 8]: 84.36%
CD4+ CD8− intratumoral T cells [3, 9]: 1.01%
CD8+ CD4− intratumoral T cells [3, 9]: 6.32%
MDSCs (CD11b+Ly6G+) [3, 9]: 12.09%
Tregs (CD25+Foxp3+) [3, 9]: 2.29%
level of Ki67+CD8+ T cells (of total CD8+CD4− T cells), in words ([3]; summary of Table 12): reduced
level of PD-1+CD8+ T cells (of total CD8+CD4− T cells), in words ([3]; summary of Table 12): reduced
percentage of intratumoral CD4+CD8− T cells (of total CD45+ cells), in words ([3]; summary of Table 12): increased
percentage of intratumoral CD8+CD4− T cells (of total CD45+ cells), in words ([3]; summary of Table 12): increased
tumor rejection / tumor growth [4]: did not prevent tumor growth
Mean PGE-2 (tumoral) ([5]; 0.1 mg/kg): 203.9 ± 157.9 ng/g
Mean PGE-2 (tumoral) ([5]; 0.3 mg/kg): 237.3 ± 119.8 ng/g
Mean PGE-2 (tumoral) ([5]; 1 mg/kg): 90.7 ± 105.1 ng/g
Mean PGE-2 (tumoral) ([5]; 3 mg/kg): 94.3 ± 78.4 ng/g
Mean PGE-2 (tumoral) ([5]; 10 mg/kg): 45.5 ± 73.4 ng/g
Tumor Volume ([6]; Day 0, 0.1 mg/kg oral daily): 65.8 mm^3
Tumor Volume ([6]; Day 0, 0.3 mg/kg oral daily): 70.9 mm^3
Tumor Volume ([6]; Day 0, 1 mg/kg oral daily): 68.5 mm^3
Tumor Volume ([6]; Day 0, 3 mg/kg oral daily): 68.4 mm^3
Tumor Volume ([6]; Day 0, 10 mg/kg oral daily): 69.0 mm^3
Tumor Volume ([6]; Day 3, 0.1 mg/kg oral daily): 88.5 mm^3
Tumor Volume ([6]; Day 3, 0.3 mg/kg oral daily): 83.8 mm^3
Tumor Volume ([6]; Day 3, 1 mg/kg oral daily): 85.2 mm^3
Tumor Volume ([6]; Day 3, 3 mg/kg oral daily): 80.3 mm^3
Tumor Volume ([6]; Day 3, 10 mg/kg oral daily): 83.9 mm^3
Tumor Volume ([6]; Day 6, 0.1 mg/kg oral daily): 165.0 mm^3
Tumor Volume ([6]; Day 6, 0.3 mg/kg oral daily): 132.9 mm^3
Tumor Volume ([6]; Day 6, 1 mg/kg oral daily): 152.8 mm^3
Tumor Volume ([6]; Day 6, 3 mg/kg oral daily): 121.9 mm^3
Tumor Volume ([6]; Day 6, 10 mg/kg oral daily): 107.7 mm^3
Tumor Volume ([6]; Day 9, 0.1 mg/kg oral daily): 283.1 mm^3
Tumor Volume ([6]; Day 9, 0.3 mg/kg oral daily): 231.5 mm^3
Tumor Volume ([6]; Day 9, 1 mg/kg oral daily): 239.8 mm^3
Tumor Volume ([6]; Day 9, 3 mg/kg oral daily): 190.1 mm^3
Tumor Volume ([6]; Day 9, 10 mg/kg oral daily): 176.0 mm^3
Tumor Volume ([6]; Day 12, 0.1 mg/kg oral daily): 360.3 mm^3
Tumor Volume ([6]; Day 12, 0.3 mg/kg oral daily): 298.2 mm^3
Tumor Volume ([6]; Day 12, 1 mg/kg oral daily): 311.1 mm^3
Tumor Volume ([6]; Day 12, 3 mg/kg oral daily): 279.5 mm^3
Tumor Volume ([6]; Day 12, 10 mg/kg oral daily): 257.7 mm^3
Tumor Volume ([6]; Day 15, 0.1 mg/kg oral daily): 416.8 mm^3
Tumor Volume ([6]; Day 15, 0.3 mg/kg oral daily): 350.7 mm^3
Tumor Volume ([6]; Day 15, 1 mg/kg oral daily): 364.8 mm^3
Tumor Volume ([6]; Day 15, 3 mg/kg oral daily): 329.1 mm^3
Tumor Volume ([6]; Day 15, 10 mg/kg oral daily): 332.0 mm^3
Tumor Volume ([6]; Day 18, 0.1 mg/kg oral daily): 640.9 mm^3
Tumor Volume ([6]; Day 18, 0.3 mg/kg oral daily): 530.8 mm^3
Tumor Volume ([6]; Day 18, 1 mg/kg oral daily): 532.6 mm^3
Tumor Volume ([6]; Day 18, 3 mg/kg oral daily): 445.1 mm^3
Tumor Volume ([6]; Day 18, 10 mg/kg oral daily): 357.3 mm^3
Tumor Volume ([6]; Day 21, 0.1 mg/kg oral daily): 900.4 mm^3
Tumor Volume ([6]; Day 21, 0.3 mg/kg oral daily): 723.5 mm^3
Tumor Volume ([6]; Day 21, 1 mg/kg oral daily): 730.9 mm^3
Tumor Volume ([6]; Day 21, 3 mg/kg oral daily): 622.8 mm^3
Tumor Volume ([6]; Day 21, 10 mg/kg oral daily): 453.6 mm^3
Tumor Volume ([6]; Day 22, 0.1 mg/kg oral daily): 987.7 mm^3
Tumor Volume ([6]; Day 22, 0.3 mg/kg oral daily): 753.5 mm^3
Tumor Volume ([6]; Day 22, 1 mg/kg oral daily): 772.1 mm^3
Tumor Volume ([6]; Day 22, 3 mg/kg oral daily): 699.4 mm^3
Tumor Volume ([6]; Day 22, 10 mg/kg oral daily): 561.8 mm^3
Body weight ([7]; Day 0, A01 1 mg/kg oral daily): 23.4 g
Body weight ([7]; Day 0, A01 10 mg/kg oral daily): 23.5 g
Body weight ([7]; Day 3, A01 1 mg/kg oral daily): 22.4 g
Body weight ([7]; Day 6, A01 1 mg/kg oral daily): 21.6 g
Body weight ([7]; Day 6, A01 10 mg/kg oral daily): 22.0 g
Body weight ([7]; Day 15, A01 1 mg/kg oral daily): 20.0 g
Body weight ([7]; Day 18, A01 1 mg/kg oral daily): 19.9 g
Body weight ([7]; Day 21, A01 1 mg/kg oral daily): 19.9 g
Body weight ([7]; Day 22, A01 1 mg/kg oral daily): 20.0 g
